# Assays:
# [1] = biological target: recombinant human NF-kappaB-inducing kinase (NIK/MAP3K14) (Homo sapiens (Human), UniProt Q99558); assay: Inhibition of auto-phosphorylation of recombinant human NIK/MAP3K14 (AlphaScreen); format: biochemical; conditions: NIK auto-phosphorylation, 5 μM ATP, 1 nM NIK, 2 h at 25° C.; average of values
# How it was run: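 GST-tagged NIK (1 nM) auto-phosphorylated with 5 μM ATP for 2 h at 25° C. in 50 mM Tris pH 7.5, 5 mM MgCl2, 1 mM EGTA, 1 mM DTT, 0.1 mM Na3VO4, 0.01% Tween 20 (0.7% DMSO). Detected by AlphaScreen via anti-phospho-IKK Ser176/180 antibody; IC50 from sigmoidal fit of % inhibition versus log concentration.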
# [2] = system: p-IKKα levels in L363 (NIK translocated multiple myeloma) cells; assay: Effect of compounds on p-IKKα levels in L363 cells (AlphaLISA SureFire Ultra); format: cell-based, human; conditions: Homo sapiens, L-363, 6 h, BAFF stimulated, MG132, 6 h, average of values, read-out: Assay 2 IC50
# How it was run: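 Inhibition of p-IKKα (Ser176/180) read by AlphaLISA after 6 h, 37 °C compound exposure (11-point 1:3 series, 0.3% DMSO) of L363 cells pre-incubated overnight ± 250 ng/ml BAFF and plated ± BAFF ± 10 μM MG132. Normalised to BAFF/MG132/DMSO and unstimulated controls; IC50 by sigmoidal fitting, duplicates.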
# Sequence of recombinant human NF-kappaB-inducing kinase (NIK/MAP3K14) (Q99558 whole entry): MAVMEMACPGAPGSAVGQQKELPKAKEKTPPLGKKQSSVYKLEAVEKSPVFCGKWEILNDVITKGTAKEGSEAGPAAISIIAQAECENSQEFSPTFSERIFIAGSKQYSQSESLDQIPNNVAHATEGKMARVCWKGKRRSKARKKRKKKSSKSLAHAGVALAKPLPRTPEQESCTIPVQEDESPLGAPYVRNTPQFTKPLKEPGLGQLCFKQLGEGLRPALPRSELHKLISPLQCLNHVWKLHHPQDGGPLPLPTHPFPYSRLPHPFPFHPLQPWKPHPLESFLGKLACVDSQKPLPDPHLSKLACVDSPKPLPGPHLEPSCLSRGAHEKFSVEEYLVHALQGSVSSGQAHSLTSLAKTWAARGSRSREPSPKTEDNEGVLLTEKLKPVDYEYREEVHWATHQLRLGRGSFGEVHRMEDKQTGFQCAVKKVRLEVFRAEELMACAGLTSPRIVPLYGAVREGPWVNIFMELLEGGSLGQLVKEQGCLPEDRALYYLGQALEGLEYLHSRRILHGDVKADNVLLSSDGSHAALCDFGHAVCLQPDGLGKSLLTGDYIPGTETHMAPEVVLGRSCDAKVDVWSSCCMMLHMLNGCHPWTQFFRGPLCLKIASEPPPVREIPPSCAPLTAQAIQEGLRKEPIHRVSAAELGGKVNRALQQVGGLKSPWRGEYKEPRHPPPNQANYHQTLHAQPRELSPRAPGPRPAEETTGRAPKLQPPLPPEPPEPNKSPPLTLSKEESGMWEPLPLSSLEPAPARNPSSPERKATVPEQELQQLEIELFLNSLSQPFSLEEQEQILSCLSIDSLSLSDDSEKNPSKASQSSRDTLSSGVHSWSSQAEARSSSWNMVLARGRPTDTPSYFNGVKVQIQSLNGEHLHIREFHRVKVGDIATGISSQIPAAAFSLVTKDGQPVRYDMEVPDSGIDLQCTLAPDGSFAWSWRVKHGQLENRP
SMILES,IC50 [1] [nM],IC50 [2] [nM]
"CN1CC[C@@](O)(C#Cc2cccc(-c3ccc4ncnc(-c5ccccc5)c4n3)c2)C1=O [Example 257, (R)-3-Hydroxy-1-methyl-3-((3-(4-phenylpyrido[3,2-d]pyrimidin-6-yl)phenyl)ethynyl)pyrrolidin-2-one]",44,2460
"Cc1nc(N)c2nc(-c3cccc(C#C[C@]4(O)CCN(C)C4=O)c3)ccc2n1 [Example 6, (R)-3-((3-(4-Amino-2-methylpyrido[3,2-d]pyrimidin-6-yl)phenyl)ethynyl)-3-hydroxy-1-methylpyrrolidin-2-one]",0.6,12
"C[C@@](O)(C#Cc1cccc(-c2ccc3ncnc(N)c3n2)c1)c1nccs1 [Example 93, (R)-4-(3-(4-Aminopyrido[3,2-d]pyrimidin-6-yl)phenyl)-2-(thiazol-2-yl)but-3-yn-2-ol]",≤ 0.5,6.5
"Cc1cnc(N)c2nc(-c3cccc(C#C[C@]4(O)CCn5ccnc54)c3)ncc12 [Example 86, (R)-7-[2-[3-(8-Amino-5-methyl-pyrido[3,4-d]pyrimidin-2-yl)phenyl]ethynyl]-5,6-dihydropyrrolo[1,2-a]imidazol-7-ol]",≤ 0.5,7.7
"Cc1ccc(C#C[C@]2(O)CCc3cccnc32)cc1-c1nc2c(N)ncnc2s1 [Example 184, (R)-7-[2-[3-(7-Aminothiazolo[5,4-d]pyrimidin-2-yl)-4-methyl-phenyl]ethynyl]-5,6-dihydrocyclopenta[b]pyridin-7-ol]",≤ 0.5,9.9
"Cc1n[nH]c(C)c1-c1cnc(N)c2nc(-c3cccc(C#C[C@]4(O)CCN(C)C4=O)c3)ncc12 [Example 125, (R)-3-[2-[3-[8-Amino-5-(3,5-dimethyl-1H-pyrazol-4-yl)pyrido[3,4-d]pyrimidin-2-yl]phenyl]ethynyl]-3-hydroxy-1-methyl-pyrrolidin-2-one]",≤ 0.5,18
"Nc1nccc2cnc(-c3cccc(C#CC4(O)CCN(CC(F)(F)F)C4=O)c3)nc12 (stereo in doubt) [Example 72, (R)-3-[2-[3-(8-Aminopyrido[3,4-d]pyrimidin-2-yl)phenyl]ethynyl]-3-hydroxy-1-(2,2,2-trifluoroethyl)pyrrolidin-2-one]",8,910
"Cc1ccc(C#C[C@]2(O)CCN(CC(F)(F)F)C2=O)cc1-c1ccc2ccnc(N)c2c1 [Example 77, (R)-3-[2-[3-(1-Amino-7-isoquinolyl)-4-methyl-phenyl]ethynyl]-3-hydroxy-1-(2,2,2-trifluoroethyl)pyrrolidin-2-one]",> 5000,> 5000
"Cc1[nH]ncc1-c1cnc(N)c2nc(-c3cccc(C#C[C@]4(O)CCN(C)C4=O)c3)ncc12 [Example 127, (R)-3-[2-[3-[8-Amino-5-(5-methyl-1H-pyrazol-4-yl)pyrido[3,4-d]pyrimidin-2-yl]phenyl]ethynyl]-3-hydroxy-1-methyl-pyrrolidin-2-one]",≤ 0.5,12
"CC(C)Nc1cc(-c2cccc(C#C[C@]3(O)CCN(C)C3=O)c2)nc2c(N)ncnc12 [Example 297, (R)-3-[2-[3-[4-Amino-8-(isopropylamino)pyrido[3,2-d]pyrimidin-6-yl]phenyl]ethynyl]-3-hydroxy-1-methyl-pyrrolidin-2-one]",1.9,31
"CN1CCC(O)(C#Cc2cccc(-c3ccc4ccnc(N)c4n3)c2)C1=O (stereo in doubt) [Example 19, (R)-3-[2-[3-(8-Amino-1,7-naphthyridin-2-yl)phenyl]ethynyl]-3-hydroxy-1-methyl-pyrrolidin-2-one]",≤ 0.5,9.9
"Cc1cnc(N)c2nc(-c3cccc(C#C[C@]4(O)CCN(C)C4=O)c3)ccc12 [Example 120, (R)-3-[2-[3-(8-Amino-5-methyl-1,7-naphthyridin-2-yl)phenyl]ethynyl]-3-hydroxy-1-methyl-pyrrolidin-2-one]",≤ 0.5,21
"Cc1nc(N)c2nc(-c3cccc(C#C[C@@](C)(O)c4nnc(C)o4)c3)ccc2n1 [Example 213, (R)-4-(3-(4-Amino-2-methylpyrido[3,2-d]pyrimidin-6-yl)phenyl)-2-(5-methyl-1,3,4-oxadiazol-2-yl)but-3-yn-2-ol]",18,1080
"Cc1ccc(-c2nc3c(N)ncnc3s2)cc1C#C[C@]1(O)CCN(C)C1=O [Example 152, (R)-3-((5-(7-Aminothiazolo[5,4-d]pyrimidin-2-yl)-2-methylphenyl)ethynyl)-3-hydroxy-1-methylpyrrolidin-2-one]",3.8,200
"Cc1nnc([C@](C)(O)C#Cc2cccc(-c3ccc4ncnc(N)c4n3)c2)o1 [Example 97, (R)-4-(3-(4-Aminopyrido[3,2-d]pyrimidin-6-yl)phenyl)-2-(5-methyl-1,3,4-oxadiazol-2-yl)but-3-yn-2-ol]",0.8,46
"Cc1nc(N)c2nc(-c3cccc(C#C[C@@]4(O)C[C@H](C)N(C)C4=O)c3)ccc2n1 [Example 266, (3S,5S)-3-((3-(4-Amino-2-methylpyrido[3,2-d]pyrimidin-6-yl)phenyl)ethynyl)-3-hydroxy-1,5-dimethylpyrrolidin-2-one]",680,3700
"Cc1nc(N)c2nc(-c3cccc(C#C[C@]4(O)C[C@@H](C)N(C)C4=O)c3)ccc2n1 [Example 265, (3R,5R)-3-((3-(4-Amino-2-methylpyrido[3,2-d]pyrimidin-6-yl)phenyl)ethynyl)-3-hydroxy-1,5-dimethylpyrrolidin-2-one]",1.9,28
"Cc1nc(N)c2nc(-c3cccc(C#C[C@@](C)(O)c4ncc(C)s4)c3)ccc2n1 [Example 167, (R)-4-(3-(4-Amino-2-methylpyrido[3,2-d]pyrimidin-6-yl)phenyl)-2-(5-methylthiazol-2-yl)but-3-yn-2-ol]",12,3470
"COc1ccc(C#C[C@]2(O)CCN(C)C2=O)cc1-c1ncc2ncnc(N)c2n1 [Example 177, (R)-3-((3-(8-Aminopyrimido[5,4-d]pyrimidin-2-yl)-4-methoxyphenyl)ethynyl)-3-hydroxy-1-methylpyrrolidin-2-one]",5.1,66
"CN(C)Cc1cnc(N)c2nc(-c3cccc(C#C[C@]4(O)CCN(C)C4=O)c3)ncc12 [Example 135, (R)-3-[2-[3-[8-Amino-5-(dimethylaminomethyl)pyrido[3,4-d]pyrimidin-2-yl]phenyl]ethynyl]-3-hydroxy-1-methyl-pyrrolidin-2-one]",5.7,140
"Cc1nc(N)c2nc(-c3cccc(C#C[C@]4(O)C[C@H](C)N(C)C4=O)c3)ccc2n1 [Example 268, (3R,5S)-3-((3-(4-Amino-2-methylpyrido[3,2-d]pyrimidin-6-yl)phenyl)ethynyl)-3-hydroxy-1,5-dimethylpyrrolidin-2-one]",65,585
"Nc1nccc2ccc(-c3cccc(C#CC4(O)CCn5ccnc54)c3)nc12 (stereo in doubt) [Example 91, (R)-7-[2-[3-(8-Amino-1,7-naphthyridin-2-yl)phenyl]ethynyl]-5,6-dihydropyrrolo[1,2-a]imidazol-7-ol]",≤ 0.5,17
"CNc1nc(-c2cccc(C#C[C@]3(O)CCN(C)C3=O)c2)nc2c(N)nccc12 [Example 85, (R)-3-((3-(8-Amino-4-(methylamino)pyrido[3,4-d]pyrimidin-2-yl)phenyl)ethynyl)-3-hydroxy-1-methylpyrrolidin-2-one]",0.7,6.1
"CN1CC[C@@](O)(C#Cc2cccc(-c3ncc4c(-c5cnn(CCCC#N)c5)cnc(N)c4n3)c2)C1=O [Example 140, (R)-4-[4-[8-Amino-2-[3-[2-(3-hydroxy-1-methyl-2-oxo-pyrrolidin-3-yl)ethynyl]phenyl]pyrido[3,4-d]pyrimidin-5-yl]pyrazol-1-yl]butanenitrile]",≤ 0.5,6.2
"[2H]c1nc(N)c2nc(-c3cccc(C#C[C@]4(O)CCN(C)C4=O)c3)nc(C)c2n1 [Example 168, (R)-3-((3-(8-Amino-4-methylpyrimido[5,4-d]pyrimidin-2-yl-6-d)phenyl)ethynyl)-3-hydroxy-1-methylpyrrolidin-2-one]",2.2,4.2
"Cc1ccc(C#C[C@@](C)(O)c2nccs2)cc1-c1ccc2ccnc(N)c2c1 [Example 68, (R)-4-[3-(1-Amino-7-isoquinolyl)-4-methyl-phenyl]-2-thiazol-2-yl-but-3-yn-2-ol]",55,> 5000
"CN1CC[C@@](O)(C#Cc2cccc(-c3nc(C(F)(F)F)c4ccnc(N)c4n3)c2)C1=O [Example 38, (R)-3-((3-(8-Amino-4-(trifluoromethyl)pyrido[3,4-d]pyrimidin-2-yl)phenyl)ethynyl)-3-hydroxy-1-methylpyrrolidin-2-one]",0.7,40
"Cc1nc(-c2cccc(C#C[C@]3(O)CCc4cccnc43)c2)nc2c(N)nccc12 [Example 60, (R)-7-((3-(8-Amino-4-methylpyrido[3,4-d]pyrimidin-2-yl)phenyl)ethynyl)-6,7-dihydro-5H-cyclopenta[b]pyridin-7-ol]",0.8,27
"Cc1nc(N)c2nc(-c3cccc(C#C[C@@]4(O)CCCN(C)C4=O)c3)ccc2n1 [Example 186, (S)-3-((3-(4-Amino-2-methylpyrido[3,2-d]pyrimidin-6-yl)phenyl)ethynyl)-3-hydroxy-1-methylpiperidin-2-one]",710,> 5000

# — US20240199605A1, “SMALL MOLECULAR INHIBITORS OF NF-kB INDUCING KINASE” (Janssen Pharmaceutica NV, priority 2019, published 2024)
